# Results taken from paper PMC7659962, “Essential Oils from Monarda fistulosa: Chemical Composition and Activation of Transient Receptor Potential A1 (TRPA1) Channels” (Molecules, 2020).
# Target: T1, rTRPA1 (Rattus norvegicus, UniProt Q6RI86)
# T1 construct: gene Trpa1
# Assay: Fura-2 calcium imaging in stably transfected HEK […] cells
# Format: cell-based
# Conditions: 100 µM; agonist; HBSS pH […]; […] ratio change from baseline; blocked by HC-030031; nontransfected HEK cells as control
# T1 sequence (Q6RI86 whole entry): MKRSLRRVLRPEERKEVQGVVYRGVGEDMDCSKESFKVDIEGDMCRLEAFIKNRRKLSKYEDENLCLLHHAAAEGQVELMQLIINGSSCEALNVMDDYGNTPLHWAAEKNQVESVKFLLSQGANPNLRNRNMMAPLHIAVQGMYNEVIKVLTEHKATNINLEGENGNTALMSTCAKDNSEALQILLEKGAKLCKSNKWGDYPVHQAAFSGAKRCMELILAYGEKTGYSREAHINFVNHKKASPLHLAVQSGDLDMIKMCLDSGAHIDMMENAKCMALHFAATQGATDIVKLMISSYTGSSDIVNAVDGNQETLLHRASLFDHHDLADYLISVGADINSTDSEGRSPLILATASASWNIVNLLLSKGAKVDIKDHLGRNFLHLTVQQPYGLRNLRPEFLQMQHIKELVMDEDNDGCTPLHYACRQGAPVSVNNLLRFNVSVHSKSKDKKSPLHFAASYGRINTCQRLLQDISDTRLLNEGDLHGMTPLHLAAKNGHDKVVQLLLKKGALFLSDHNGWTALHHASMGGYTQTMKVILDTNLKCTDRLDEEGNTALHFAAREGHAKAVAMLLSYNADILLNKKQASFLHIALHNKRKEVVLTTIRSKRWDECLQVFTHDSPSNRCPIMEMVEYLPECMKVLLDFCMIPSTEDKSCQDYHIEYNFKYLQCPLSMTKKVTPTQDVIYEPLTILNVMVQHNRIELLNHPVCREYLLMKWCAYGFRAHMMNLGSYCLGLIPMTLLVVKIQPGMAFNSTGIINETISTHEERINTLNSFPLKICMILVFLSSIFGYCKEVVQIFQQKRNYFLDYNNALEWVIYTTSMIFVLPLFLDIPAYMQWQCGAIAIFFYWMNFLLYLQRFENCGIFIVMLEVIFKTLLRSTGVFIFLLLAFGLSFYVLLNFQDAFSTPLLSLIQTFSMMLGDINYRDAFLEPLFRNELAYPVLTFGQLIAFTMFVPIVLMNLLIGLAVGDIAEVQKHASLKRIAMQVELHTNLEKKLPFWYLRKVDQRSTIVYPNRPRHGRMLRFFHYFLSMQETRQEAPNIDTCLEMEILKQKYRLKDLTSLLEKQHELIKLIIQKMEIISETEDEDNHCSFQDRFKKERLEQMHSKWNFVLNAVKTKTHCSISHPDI
row,SMILES,HEK Cells / rTRPA1 / [Ca^2+]i Change
1,Cc1ccc(C(C)C)cc1O [Carvacrol],0.340 ± 0.012
2,Cc1ccc(C(C)C)c(O)c1 [Thymol],0.849 ± 0.013
3,C=CC(=C)CCC=C(C)C [β-Myrcene],0.111 ± 0.003
